{"source": "paper PMC9516332", "about": "(Frontiers in Oncology, 2022)", "key": {"AP-1060 (ETV6-NTRK3)": {"system": "AP-1060 (ETV6-NTRK3)", "assay": "Cell viability assay", "settings": "read-out: IC50 in cell proliferation assay"}, "134 cancer cell lines": {"system": "134 cancer cell lines", "assay": "Cell viability assay (ATPlite, 72 hours), IC50 on cancer cell line panel"}}, "note": "Read-outs that look alike come from different tables or passages of the source."}
{"smiles": "CCCS(=O)(=O)Nc1ccc(F)c(C(=O)c2c[nH]c3ncc(-c4ccc(Cl)cc4)cc23)c1F", "note": "[vemurafenib]", "values": [{"measurement": "IC50", "setting": "AP-1060 (ETV6-NTRK3)", "value": 31.6, "unit": "µM"}, {"measurement": "IC50", "setting": "134 cancer cell lines; HEC-6, read-out: IC50 in cell proliferation assay, HEC-6 cell line (EGFR p.A289V)", "value": "> 31.6", "unit": "µM"}, {"measurement": "IC50", "setting": "134 cancer cell lines; Homo sapiens, 769-P, read-out: IC50 in cell proliferation assay, cell line 769-P", "value": "> 31.6", "unit": "µM"}, {"measurement": "IC50", "setting": "134 cancer cell lines; Homo sapiens, 786-0, read-out: IC50 in cell proliferation assay, cell line 786-O", "value": 25.1, "unit": "µM"}, {"measurement": "IC50", "setting": "134 cancer cell lines; Homo sapiens, A 172, read-out: IC50 in cell proliferation assay, cell line A-172", "value": "> 31.6", "unit": "µM"}, {"measurement": "IC50", "setting": "134 cancer cell lines; Homo sapiens, A204, read-out: IC50 in cell proliferation assay, cell line A-204", "value": "> 31.6", "unit": "µM"}, {"measurement": "IC50", "setting": "134 cancer cell lines; Homo sapiens, A498, read-out: IC50 in cell proliferation assay, cell line A-498", "value": 21.6, "unit": "µM"}, {"measurement": "IC50", "setting": "134 cancer cell lines; Homo sapiens, A549, read-out: IC50 in cell proliferation assay, cell line A-549", "value": 31.2, "unit": "µM"}, {"measurement": "IC50", "setting": "134 cancer cell lines; Homo sapiens, A704, read-out: IC50 in cell proliferation assay, cell line A-704", "value": "> 31.6", "unit": "µM"}, {"measurement": "IC50", "setting": "134 cancer cell lines; Homo sapiens, A-375, read-out: IC50 in cell proliferation assay, cell line A-375 (BRAF p.V600E)", "value": 1.76, "unit": "µM"}, {"measurement": "IC50", "setting": "134 cancer cell lines; Homo sapiens, A-427, read-out: IC50 in cell proliferation assay, cell line A-427", "value": "> 31.6", "unit": "µM"}, {"measurement": "IC50", "setting": "134 cancer cell lines; Homo sapiens, ACHN, read-out: IC50 in cell proliferation assay, cell line ACHN", "value": 20.1, "unit": "µM"}, {"measurement": "IC50", "setting": "134 cancer cell lines; Homo sapiens, AN3-CA, read-out: IC50 in cell proliferation assay, cell line AN3-CA (FGFR2 p.N549K)", "value": "> 31.6", "unit": "µM"}, {"measurement": "IC50", "setting": "134 cancer cell lines; Homo sapiens, ASPC1, read-out: IC50 in cell proliferation assay, cell line AsPC-1", "value": "> 31.6", "unit": "µM"}, {"measurement": "IC50", "setting": "134 cancer cell lines; Homo sapiens, AU565, read-out: IC50 in cell proliferation assay, cell line AU565 (ERBB2 amplification)", "value": "> 31.6", "unit": "µM"}, {"measurement": "IC50", "setting": "134 cancer cell lines; Homo sapiens, BT-20, read-out: IC50 in cell proliferation assay, cell line BT-20", "value": "> 31.6", "unit": "µM"}, {"measurement": "IC50", "setting": "134 cancer cell lines; Homo sapiens, BT-474, read-out: IC50 in cell proliferation assay, cell line BT-474 (ERBB2 amplification)", "value": "> 31.6", "unit": "µM"}, {"measurement": "IC50", "setting": "134 cancer cell lines; Homo sapiens, BT-549, read-out: IC50 in cell proliferation assay, cell line BT-549", "value": 31.2, "unit": "µM"}, {"measurement": "IC50", "setting": "134 cancer cell lines; Homo sapiens, BXPC-3, read-out: IC50 in cell proliferation assay, cell line BxPC-3", "value": 28.2, "unit": "µM"}, {"measurement": "IC50", "setting": "134 cancer cell lines; Homo sapiens, C-33-A, read-out: IC50 in cell proliferation assay, cell line C-33 A", "value": "> 31.6", "unit": "µM"}, {"measurement": "IC50", "setting": "134 cancer cell lines; Homo sapiens, CAL-27, read-out: IC50 in cell proliferation assay, cell line CAL-27", "value": "> 31.6", "unit": "µM"}, {"measurement": "IC50", "setting": "134 cancer cell lines; Homo sapiens, CCF-STTG1, read-out: IC50 in cell proliferation assay, cell line CCF-STTG1", "value": "> 31.6", "unit": "µM"}, {"measurement": "IC50", "setting": "134 cancer cell lines; Homo sapiens, CCRF-CEM, read-out: IC50 in cell proliferation assay, cell line CCRF-CEM", "value": 27.6, "unit": "µM"}, {"measurement": "IC50", "setting": "134 cancer cell lines; Homo sapiens, COLO 205, read-out: IC50 in cell proliferation assay, cell line COLO 205 (BRAF p.V600E)", "value": 0.744, "unit": "µM"}, {"measurement": "IC50", "setting": "134 cancer cell lines; Homo sapiens, COLO-829, read-out: IC50 in cell proliferation assay, cell line COLO 829 (BRAF p.V600E)", "value": 2.22, "unit": "µM"}, {"measurement": "IC50", "setting": "134 cancer cell lines; Homo sapiens, DLD-1, read-out: IC50 in cell proliferation assay, cell line DLD-1", "value": "> 31.6", "unit": "µM"}, {"measurement": "IC50", "setting": "134 cancer cell lines; Homo sapiens, DU-4475, read-out: IC50 in cell proliferation assay, cell line DU4475 (BRAF p.V600E)", "value": 1.83, "unit": "µM"}, {"measurement": "IC50", "setting": "134 cancer cell lines; Homo sapiens, Daoy, read-out: IC50 in cell proliferation assay, cell line Daoy", "value": "> 31.6", "unit": "µM"}, {"measurement": "IC50", "setting": "134 cancer cell lines; Homo sapiens, DoTc2-4510, read-out: IC50 in cell proliferation assay, cell line DoTc2 4510", "value": "> 31.6", "unit": "µM"}, {"measurement": "IC50", "setting": "134 cancer cell lines; Homo sapiens, EOL1, read-out: IC50 in cell proliferation assay, cell line EoL-1 (FIP1L1-PDGFRA)", "value": 1.62, "unit": "µM"}, {"measurement": "IC50", "setting": "134 cancer cell lines; Homo sapiens, FaDu, read-out: IC50 in cell proliferation assay, cell line FaDu", "value": "> 31.6", "unit": "µM"}, {"measurement": "IC50", "setting": "134 cancer cell lines; Homo sapiens, G-361, read-out: IC50 in cell proliferation assay, cell line G-361 (BRAF p.V600E)", "value": 3.25, "unit": "µM"}, {"measurement": "IC50", "setting": "134 cancer cell lines; Homo sapiens, HCC827, read-out: IC50 in cell proliferation assay, cell line HCC827 (EGFR exon19del)", "value": "> 31.6", "unit": "µM"}, {"measurement": "IC50", "setting": "134 cancer cell lines; Homo sapiens, HCC4006, read-out: IC50 in cell proliferation assay, cell line HCC4006 (EGFR exon19del)", "value": "> 31.6", "unit": "µM"}, {"measurement": "IC50", "setting": "134 cancer cell lines; Homo sapiens, HCT-15, read-out: IC50 in cell proliferation assay, cell line HCT 15", "value": "> 31.6", "unit": "µM"}, {"measurement": "IC50", "setting": "134 cancer cell lines; Homo sapiens, HCT-116, read-out: IC50 in cell proliferation assay, cell line HCT 116", "value": "> 31.6", "unit": "µM"}, {"measurement": "IC50", "setting": "134 cancer cell lines; Homo sapiens, HEC-1, read-out: IC50 in cell proliferation assay, HEC-1 cell line", "value": "> 31.6", "unit": "µM"}, {"measurement": "IC50", "setting": "134 cancer cell lines; Homo sapiens, HEC-1B, read-out: IC50 in cell proliferation assay, HEC-1-B cell line (EGFR p.A864V)", "value": "> 31.6", "unit": "µM"}, {"measurement": "IC50", "setting": "134 cancer cell lines; Homo sapiens, HL-60, read-out: IC50 in cell proliferation assay, HL-60 cell line", "value": "> 31.6", "unit": "µM"}, {"measurement": "IC50", "setting": "134 cancer cell lines; Homo sapiens, HT, read-out: IC50 in cell proliferation assay, HT cell line", "value": "> 31.6", "unit": "µM"}, {"measurement": "IC50", "setting": "134 cancer cell lines; Homo sapiens, HT-1080, read-out: IC50 in cell proliferation assay, HT-1080 cell line", "value": 9.43, "unit": "µM"}, {"measurement": "IC50", "setting": "134 cancer cell lines; Homo sapiens, Hs746T, read-out: IC50 in cell proliferation assay, Hs 746.T cell line (MET exon14skip + amplification)", "value": "> 31.6", "unit": "µM"}, {"measurement": "IC50", "setting": "134 cancer cell lines; Homo sapiens, Hs-578T, read-out: IC50 in cell proliferation assay, Hs 578T cell line", "value": 30.6, "unit": "µM"}, {"measurement": "IC50", "setting": "134 cancer cell lines; Homo sapiens, HuTu80, read-out: IC50 in cell proliferation assay, HuTu 80 cell line", "value": "> 31.6", "unit": "µM"}, {"measurement": "IC50", "setting": "134 cancer cell lines; Homo sapiens, J82, read-out: IC50 in cell proliferation assay, J82 cell line", "value": "> 31.6", "unit": "µM"}, {"measurement": "IC50", "setting": "134 cancer cell lines; Homo sapiens, Jurkat E6.1, read-out: IC50 in cell proliferation assay, Jurkat E6.1 cell line", "value": 28.3, "unit": "µM"}, {"measurement": "IC50", "setting": "134 cancer cell lines; Homo sapiens, K562, read-out: IC50 in cell proliferation assay, K-562 cell line", "value": "> 31.6", "unit": "µM"}, {"measurement": "IC50", "setting": "134 cancer cell lines; Homo sapiens, KATO III, read-out: IC50 in cell proliferation assay, KATO III cell line (FGFR2 amplification)", "value": 20.7, "unit": "µM"}, {"measurement": "IC50", "setting": "134 cancer cell lines; Homo sapiens, KG-1, read-out: IC50 in cell proliferation assay, KG-1 cell line (FGFR1OP2-FGFR1)", "value": "> 31.6", "unit": "µM"}, {"measurement": "IC50", "setting": "134 cancer cell lines; Homo sapiens, KLE, read-out: IC50 in cell proliferation assay, KLE cell line", "value": "> 31.6", "unit": "µM"}, {"measurement": "IC50", "setting": "134 cancer cell lines; Homo sapiens, KMS-11, read-out: IC50 in cell proliferation assay, KMS-11 cell line (FGFR3 p.Y373C)", "value": 29.5, "unit": "µM"}, {"measurement": "IC50", "setting": "134 cancer cell lines; Homo sapiens, KU812, read-out: IC50 in cell proliferation assay, Ku812 cell line", "value": 28.5, "unit": "µM"}, {"measurement": "IC50", "setting": "134 cancer cell lines; Homo sapiens, Kasumi 1, read-out: IC50 in cell proliferation assay, Kasumi-1 cell line (KIT p.N822K)", "value": "> 31.6", "unit": "µM"}, {"measurement": "IC50", "setting": "134 cancer cell lines; Homo sapiens, LC-2-ad, read-out: IC50 in cell proliferation assay, LC-2/ad cell line (CCDC6-RET)", "value": "> 31.6", "unit": "µM"}, {"measurement": "IC50", "setting": "134 cancer cell lines; Homo sapiens, LNCaP-Clone-FGC, read-out: IC50 in cell proliferation assay, LNCaP clone FGC cell line", "value": "> 31.6", "unit": "µM"}, {"measurement": "IC50", "setting": "134 cancer cell lines; Homo sapiens, LS174T, read-out: IC50 in cell proliferation assay, LS174T cell line", "value": "> 31.6", "unit": "µM"}, {"measurement": "IC50", "setting": "134 cancer cell lines; Homo sapiens, LS-411N, read-out: IC50 in cell proliferation assay, LS411N cell line (BRAF p.V600E)", "value": 1.28, "unit": "µM"}, {"measurement": "IC50", "setting": "134 cancer cell lines; Homo sapiens, LoVo, read-out: IC50 in cell proliferation assay, LoVo cell line", "value": "> 31.6", "unit": "µM"}, {"measurement": "IC50", "setting": "134 cancer cell lines; Homo sapiens, MCF7, read-out: IC50 in cell proliferation assay, MCF-7 cell line", "value": "> 31.6", "unit": "µM"}, {"measurement": "IC50", "setting": "134 cancer cell lines; Homo sapiens, MDA-MB-231, read-out: IC50 in cell proliferation assay, MDA-MB-231 cell line", "value": "> 31.6", "unit": "µM"}, {"measurement": "IC50", "setting": "134 cancer cell lines; Homo sapiens, MDA-MB-453, read-out: IC50 in cell proliferation assay, MDA-MB-453 cell line", "value": "> 31.6", "unit": "µM"}, {"measurement": "IC50", "setting": "134 cancer cell lines; Homo sapiens, MDA-MB-468, read-out: IC50 in cell proliferation assay, MDA-MB-468 cell line", "value": "> 31.6", "unit": "µM"}, {"measurement": "IC50", "setting": "134 cancer cell lines; Homo sapiens, MG-63, read-out: IC50 in cell proliferation assay, MG-63 cell line", "value": "> 31.6", "unit": "µM"}, {"measurement": "IC50", "setting": "134 cancer cell lines; Homo sapiens, MIA PaCa-2, read-out: IC50 in cell proliferation assay, MIA PaCa-2 cell line", "value": "> 31.6", "unit": "µM"}, {"measurement": "IC50", "setting": "134 cancer cell lines; Homo sapiens, MKN-45, read-out: IC50 in cell proliferation assay, MKN45 cell line (MET amplification)", "value": "> 31.6", "unit": "µM"}, {"measurement": "IC50", "setting": "134 cancer cell lines; Homo sapiens, MOLM-13, read-out: IC50 in cell proliferation assay, MOLM-13 cell line (FLT3 ITD)", "value": 8.9, "unit": "µM"}]}
